Tests used:
Format in all cases: in vivo
[1] = tested on: large crabgrass (Digitaria sanguinalis); experiment: Test C pre-/postemergence: large crabgrass
Procedure, shortened: (§1)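 Visual injury scored 0–100 (100 = complete control) against untreated controls after 13–15 greenhouse days. Surfactant-containing solvent formulations applied either to soil after sowing (loam/sand) or over 1- to 4-leaf plants, 2–18 cm tall.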

corn (Zea mays) [2] = experiment: Test A pre-/postemergence: corn; conditions: 1000 g ai/ha
Procedure, shortened: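 Whole-plant greenhouse assay in loam/sand. Preemergence directed soil spray plus simultaneous postemergence spray (one- to two-leaf stage, 2–10 cm). Rated visually ~10 days later, 0 = no effect, 100 = complete control.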

kochia (Kochia scoparia) = experiment: Test C pre-/postemergence: kochia
Procedure, shortened: as §1

[3] = tested on: chickweed (common chickweed, Stellaria media); experiment: Test C postemergence: chickweed
Source text: (§2) At the same time, plants selected from these crop and weed species and also barley (winter barley, Hordeum vulgare), canarygrass (Phalaris minor), chickweed (common chickweed, Stellaria media) windgrass (Apera spica-venti) and deadnettle (henbit deadnettle, Lamium amplexicaule) were planted in pots containing Redi-Earth® planting medium (Scotts Company, 14111 Scottslawn Road, Marysville, Ohio 43041) comprising spaghnum peat moss, vermiculite, wetting agent and starter nutrients and treated with postemergence applications of test chemicals formulated in the same manner. Plants ranged in height from 2 to 18 cm (1- to 4-leaf stage) for postemergence treatments.
(§3) Treated plants and controls were maintained in a greenhouse for 13 to 15 days, after which time all species were compared to controls and visually evaluated. Plant response ratings, summarized in Table C, are based on a scale of 0 to 100 where 0 is no effect and 100 is complete control. A dash (-) response means no test result.

wild oat (Avena fatua) = experiment: Test C pre-/postemergence: wild oat
Procedure, shortened: as §1

[4] = tested on: ragweed (common ragweed, Ambrosia elation); experiment: Test C pre-/postemergence: ragweed
Source text: (§4) Seeds of plant species selected from blackgrass (Alopecurus myosuroides), bromegrass, downy (downy bromegrass, Bromus tectorum), foxtail, green (green foxtail, Setaria viridis), ryegrass, Italian (Italian ryegrass, Lolium multiflorum), winter wheat (Triticum aestivum), wild oat (Avena fatua), galium (catchweed bedstraw, Galium aparine), bermudagrass (Cynodon dactylon), surinam grass (Brachiaria decumbens), cocklebur (common cocklebur, Xanthium strumarium), corn (Zea mays), large crabgrass (Digitaria sanguinalis), woolly cupgrass (Eriochloa villosa), foxtail, giant (giant foxtail, Setaria faberii), goosegrass (Eleusine indica), johnsongrass (Sorghum halepense), kochia (Kochia scoparia), lambsquarters (Chenopodium album), morningglory (Ipomoea coccinea), nightshade (eastern black nightshade, Solanum ptycanthum), nutsedge, yellow (yellow nutsedge, Cyperus esculentus), pigweed (Amaranthus retroflexus), ragweed (common ragweed, Ambrosia elation), soybean (Glycine max), common (oilseed) sunflower (Helianthus annuus), Russian thistle (Salsola kali) and velvetleaf (Abutilon theophrasti) were planted into a blend of loam soil and sand and treated preemergence with test chemicals formulated in a non-phytotoxic solvent mixture which included a surfactant.
as §2, §3

[5] = tested on: velvetleaf (Abutilon theophrasti); experiment: Test C pre-/postemergence: velvetleaf
Source text: as §4, §2, §3

[6] = tested on: foxtail, giant (giant foxtail, Setaria faberii); experiment: Test C pre-/postemergence: foxtail, giant
Source text: as §4, §2, §3

[7] = tested on: nutsedge, yellow (yellow nutsedge, Cyperus esculentus); experiment: Test C pre-/postemergence: nutsedge, yellow
Procedure, shortened: as §1

corn (Zea mays) [8] = experiment: Test C pre-/postemergence: corn
Source text: as §4, §2, §3

[9] = Postemergence, 31 g ai/ha, scale 0 to 100 (0 no effect, 100 complete control)
[10] = Postemergence, 62 g ai/ha, scale 0 to 100 (0 no effect, 100 complete control)
[11] = Postemergence, 125 g ai/ha, scale 0 to 100, 0 no effect, 100 complete control
[12] = Postemergence, 250 g ai/ha, scale 0 to 100
[13] = Preemergence, 31 g ai/ha, scale of 0 to 100, 0 is no effect, 100 is complete control
[14] = Preemergence, 62 g ai/ha, scale of 0 to 100, 0 is no effect, 100 is complete control
[15] = Preemergence, 125 g ai/ha, scale 0 to 100, 0 no effect, 100 complete control
[16] = Preemergence, 250 g ai/ha, scale 0 to 100, 0 no effect, 100 complete control

## Cc1nn(-c2ccc(C(F)(F)F)cn2)nc1Cc1cccc(C(F)(F)F)c1 [Compound 106]
[1]; [9]
  Plant response rating, Crabgrass, Large: 40
[1]; [10]
  Plant response rating, Crabgrass, Large: 55
[1]; [11]
  Plant response rating, Crabgrass, Large: 65
[1]; [12]
  Plant response rating, Crabgrass, Large: 65
[1]; [13]
  Plant response rating, Crabgrass, Large: 100
[1]; [14]
  Plant response rating, Crabgrass, Large: 100
[1]; [15]
  Plant response rating, Crabgrass, Large: 100
[1]; [16]
  Plant response rating, Crabgrass, Large: 100
Corn (Zea mays) [2]; Postemergence, visual rating on 0 to 100 scale (0 no effect, 100 complete control), approximately ten days
  Corn plant response rating: 10
Corn (Zea mays) [2]; Preemergence, 0 to 100 scale, 0 is no effect, 100 is complete control
  Corn plant response rating: 10
Kochia (Kochia scoparia); [9]
  Plant response rating, Kochia: 85
Kochia (Kochia scoparia); [10]
  Plant response rating, Kochia: 85
Kochia (Kochia scoparia); [11]
  Plant response rating, Kochia: 85
Kochia (Kochia scoparia); [12]
  Plant response rating, Kochia: 90
Kochia (Kochia scoparia); [13]
  Plant response rating, Kochia: 0
Kochia (Kochia scoparia); [14]
  Plant response rating, Kochia: 0
Kochia (Kochia scoparia); [15]
  Plant response rating, Kochia: 45
Kochia (Kochia scoparia); [16]
  Plant response rating, Kochia: 65
[3]; 31 g ai/ha, scale 0 to 100 (0 no effect, 100 complete control)
  Plant response rating, Chickweed: 60
[3]; 62 g ai/ha, scale 0 to 100 (0 no effect, 100 complete control)
  Plant response rating, Chickweed: 70
[3]; 125 g ai/ha, scale 0 to 100, 0 no effect, 100 complete control
  Plant response rating, Chickweed: 95
[3]; 250 g ai/ha, scale 0 to 100
  Plant response rating, Chickweed: 98
Wild oat (Avena fatua); [9]
  Plant response rating, Oat, Wild: 10
Wild oat (Avena fatua); [10]
  Plant response rating, Oat, Wild: 30
Wild oat (Avena fatua); [11]
  Plant response rating, Oat, Wild: 45
Wild oat (Avena fatua); [12]
  Plant response rating, Oat, Wild: 45
Wild oat (Avena fatua); [13]
  Plant response rating, Oat, Wild: 10
Wild oat (Avena fatua); [14]
  Plant response rating, Oat, Wild: 45
Wild oat (Avena fatua); [15]
  Plant response rating, Oat, Wild: 70
Wild oat (Avena fatua); [16]
  Plant response rating, Oat, Wild: 80
[4]; [9]
  Plant response rating, Ragweed: 10
[4]; [10]
  Plant response rating, Ragweed: 55
[4]; [11]
  Plant response rating, Ragweed: 60
[4]; [12]
  Plant response rating, Ragweed: 60
[4]; [13]
  Plant response rating, Ragweed: 0
[4]; [14]
  Plant response rating, Ragweed: 0
[4]; [15]
  Plant response rating, Ragweed: 0
[4]; [16]
  Plant response rating, Ragweed: 55
[5]; [9]
  Plant response rating, Velvetleaf: 5
[5]; [10]
  Plant response rating, Velvetleaf: 45
[5]; [11]
  Plant response rating, Velvetleaf: 65
[5]; [12]
  Plant response rating, Velvetleaf: 65
[5]; [13]
  Plant response rating, Velvetleaf: 0
[5]; [14]
  Plant response rating, Velvetleaf: 0
[5]; [15]
  Plant response rating, Velvetleaf: 0
[5]; [16]
  Plant response rating, Velvetleaf: 10
[6]; [9]
  Plant response rating, Foxtail, Giant: 40
[6]; [10]
  Plant response rating, Foxtail, Giant: 40
[6]; [11]
  Plant response rating, Foxtail, Giant: 55
[6]; [12]
  Plant response rating, Foxtail, Giant: 55
[6]; [13]
  Plant response rating, Foxtail, Giant: 65
[6]; [14]
  Plant response rating, Foxtail, Giant: 85
[6]; [15]
  Plant response rating, Foxtail, Giant: 100
[6]; [16]
  Plant response rating, Foxtail, Giant: 100
[7]; [9]
  Plant response rating, Nutsedge, Yellow: 0
[7]; [10]
  Plant response rating, Nutsedge, Yellow: 0
[7]; [11]
  Plant response rating, Nutsedge, Yellow: 0
[7]; [12]
  Plant response rating, Nutsedge, Yellow: 0
[7]; [13]
  Plant response rating, Nutsedge, Yellow: 0
[7]; [14]
  Plant response rating, Nutsedge, Yellow: 0
[7]; [15]
  Plant response rating, Nutsedge, Yellow: 0
[7]; [16]
  Plant response rating, Nutsedge, Yellow: 0
Corn (Zea mays) [8]; [9]
  Plant response rating, Corn: 10
Corn (Zea mays) [8]; [10]
  Plant response rating, Corn: 15
Corn (Zea mays) [8]; [11]
  Plant response rating, Corn: 15
Corn (Zea mays) [8]; [12]
  Plant response rating, Corn: 55
Corn (Zea mays) [8]; [13]
  Plant response rating, Corn: 0
Corn (Zea mays) [8]; Preemergence, 62 g ai/ha, scale 0 to 100, 0 no effect, 100 complete control
  Plant response rating, Corn: 0
Corn (Zea mays) [8]; [15]
  Plant response rating, Corn: 0
Corn (Zea mays) [8]; [16]
  Plant response rating, Corn: 10
